The values below come from patent publication US5612480A, “2-chloro and 2-bromo derivatives of 1,5-iminosugars” (priority 1995, dated 1997).

What is called inhibition is the drop in the measured response relative to a control, in per cent. As usually defined, the CC50 is the concentration giving 50% cytotoxicity. Higher therefore signals lower toxicity to the cells. A word on the EC50: it is the concentration that produces a half-maximal response.

In brackets after ≈: the same amount, converted by molar mass. Read-outs that look alike come from different tables or passages of the source.

In series [1] the test system is α-glucosidase. As to conditions: 0.1 mM; according to U.S. Pat. No. 5,025,021; cited from earlier work.
A further series deals with HIV-1. Kind of series: Anti-HIV activity: inhibition of HIV-1 induced cytopathic effect in CEM cells, MTT (Method B). The class given is cell-based, strain HTVL-IIIB. The settings on record: Human immunodeficiency virus 1, CCRF-CEM; for inhibition at 10 µg/mL: 10 μg/mL; for inhibition at 100 µg/mL: 100 μg/mL. The procedure: (§1) Inhibitory activity against HIV-1 was shown by tests involving plating of susceptible human host cells which are syncytium-sensitive with and without virus in microculture plates, adding various concentrations of the test compound, incubating the plates for 7 to 9 days (during which time infected, non-drug treated control cells are largely or totally destroyed by the virus), and then determining the remaining number of viable cells with a colorometric endpoint.
(§2) Various illustrative compounds synthesized above were tested for inhibition of visna virus in vitro in a plaque reduction assay (Method A) or for inhibition of HIV-1 in a test which measured reduction of cyto-pathogenic effect in virus-infected syncytium-sensitive Leu-3a-positive CEM cells grown in tissue culture (Method B) as follows:
Tissue culture plates were incubated at 37° C. in a humidified, 5% CO2 atmosphere and observed microscopically for toxicity and/or cytopathogenic effect (CPE). At 1 hour prior to infection each test article was prepared from the frozen stock, and a 20 μl volume of each dilution (prepared as a 10 X concentration) was added to the appropriate wells of both infected and uninfected cells.
Assays were done in 96-well tissue culture plates. CEM cells were treated with polybrene at a concentration of 2 μg/ml, and an 80 μl volume of cells (1×10^4 cells) was dispensed into each well. A 100 μl volume of each test article dilution (prepared as a 2 X concentration) was added to 5 wells of cells, and the cells were incubated at 37° C. for 1 hour. A frozen culture of HIV-1, strain HTVL-IIIB, was diluted in culture medium to a concentration of 5×10^4 TCID50 per ml, and a 20 μl volume (containing 10^3 TCID50 of virus) was added to 3 of the wells for each test article concentration. […] A 20 μl volume of normal culture medium was added to the remaining wells to allow evaluation of cytotoxicity. Each plate contained 6 wells of untreated, uninfected, cell control samples and 6 wells of untreated, infected, virus control samples.
On the 9th day post-infection, the cells in each well were resuspended and a 100 μl sample of each cell suspension was removed for use in an MTT assay. A 20 μl volume of a 5 mg/ml solution of 3-(4,5-dimethylthiazol-2-yl)-2,5-diphenyltetrazolium bromide (MTT) was added to each 100 μl cell suspension, and the cells were incubated at 37° C. in 5% CO2 for 4 hours. […] A 100 μl volume of a solution of 10% sodium dodecyl sulfate in 0.01 N hydrochloric acid was added to each sample, and the samples were incubated overnight. The absorbance at 590 nm was determined for each sample using a Molecular Devices Vmax microplate reader. This assay detects drug-induced suppression of viral CPE, as well as drug cytotoxicity, by measuring the generation of MTT-formazan by surviving cells.
(In general: Damage to the host cells serves as the signal in cytopathic effect assays.)

The subject of series [2] is β-glucosidase. The settings on record: 0.1 mM; according to U.S. Pat. No. 5,025,021; cited from earlier work.
Series [3] is described as follows: Cytotoxicity in CEM cells (TD50) in the standard CEM cell assay for HIV inhibition. The class given is cell-based. The settings on record: human. The procedure: as §1
This is illustrated by a side-by-side comparison between the 2-chloro-N-butyl-DNJ of the present invention and the corresponding 2-fluoro-N-butyl-DNJ disclosed in U.S Pat. No. 5,025,021. […] Moreover, the foregoing illustrative 2-chloro derivative also is a better enzyme inhibitor than the corresponding 2-fluoro derivative. The 2-chloro derivative inhibits α-glucosidase 46% and β-glucosidase 32% at 0.1 mM, whereas the corresponding 2-fluoro derivative inhibits these enzymes at only 8% and 4% at the same concentration according to U.S. Pat. No. 5,025,021.
Assays were done in 96-well tissue culture plates. […]
On the 9th day post-infection, the cells in each well were resuspended and a 100 μl sample of each cell suspension was removed for use in an MTT assay. […] The absorbance at 590 nm was determined for each sample using a Molecular Devices Vmax microplate reader. […]

For series [4], the system named is α-glucosidase. Kind of series: α-glucosidase inhibition, conventional in vitro assay (p-nitrophenol release). The class given is biochemical. The settings on record: 0.1 mM. The procedure:
(§3) Inhibitory activity against α- and β-glucosidase enzymes was determined by conventional in vitro assays for these enzymes as described in U.S. Pat. No. 4,973,602. These assays involve spectrophotometric measurement of the release of p-nitrophenol from the substrate p-nitrophenyl-glycoside in the presence and absence of the test compound and comparison against a control standard that contains a known inhibitor of the enzyme.

For the next series, the system named is visna virus. Kind of series: Inhibition of visna virus growth, plaque reduction assay in sheep choroid plexus (SCP) cells (Method A). The class given is cell-based. As to conditions: Visna-maedi virus.
Description: Inhibitory activity against visna virus was shown by a conventional plaque reduction assay. Visna virus, a lentivirus genetically very similar to the AIDS virus, is pathogenic for sheep and goats. See Sonigo et al., Cell 42, 369-382 (1985); Haase, Nature 322, 130-136 (1986). Inhibition of visna virus replication in vitro as a useful model for HIV and its inhibition by test compounds has been described by Frank et al., Antimicrobial Agents and Chemotherapy 31 (9), 1369-1374 (1987).
as §2
Sheep choroid plexus (SCP) cells were obtained from American Type Culture Collection (ATCC) catalogue number CRL 1700 and were routinely passaged in vitro in Dulbecco's Modified Eagles (DME) medium supplemented with 20% fetal bovine serum (FBS). SCP cells were passaged once per week at a 1:2 or 1:3 split ratio. Visna was titrated by plaque assay in six-well plates. Virus pools were stored at -70° C.
SCP cells were cultured in 6-well plates to confluence. Wells were washed two times with serum free Minimal Essential Medium (MEM) to remove FBS. 0.2 ml of virus was added per well in MEM supplemented with 4 mM glutamine and gentamycin. After 1 hour adsorption, the virus was aspirated from each well. The appropriate concentration of each compound in 5 ml of Medium 199 (M-199) supplemented with 2% lamb serum, 4 mM glutamine, 0.5% agarose and gentamycin was added to each well. Cultures were incubated at 37° C. in a humidified 5% CO2 incubator for 3-4 weeks. To terminate the test, cultures were fixed in 10% formalin, the agar removed, the monolayers stained with 1% crystal violet and plaques counted. Each compound concentration was run in triplicate. […] 0 is no toxicity observed while 4 is total lysing of the cell monolayer. […]
Control wells without virus were completed to determine the toxicity of compounds.
For orientation: Plaques are areas of infected cells; plaque reduction assays count them against a control.

For series [5], the system named is β-glucosidase. Kind of series: β-glucosidase inhibition, conventional in vitro assay (p-nitrophenol release). The class given is biochemical. As to conditions: 0.1 mM. The procedure:
as §3

Where [6] appears, read: standard CEM cell assay, side-by-side comparison.

In the case of `CCCCN1C[C@H](F)[C@@H](O)[C@H](O)[C@H]1CO` [2-fluoro-N-butyl-DNJ, reference compound], the “% inhibition of α-glucosidase” value with α-glucosidase [1] is 8%. In the series with HIV-1 (setting [6]), the inhibition at 10 µg/mL was found to be 0% and at 100 µg/mL the inhibition was 0%. In the series on HIV-1 (500 μg/mL, standard CEM cell assay, side-by-side comparison, read-out: % inhibition of HIV), the inhibition at 500 µg/mL worked out at 3%. The “% inhibition of β-glucosidase” value in the series on β-glucosidase [2] is recorded as 4%.
Compound `CCCCN1C[C@H](Cl)[C@@H](O)[C@H](O)[C@H]1CO` [Example 27, 1,5-(Butylimino)-2-chloro-1,2,5-trideoxy-D-glucitol] had a CC50 in series [3] of 187 µg/mL (≈ 787 µM). Besides, in the series with HIV-1 (setting [6]), the inhibition at 10 µg/mL was 29.3% and the inhibition at 100 µg/mL turned out to be 62.5%. The EC50 in the series on HIV-1 (CEM cells, Table 2, read-out: Anti-HIV activity, inhibition of virus induced cytopathic effect, EC50) was found to be 43 µg/mL (≈ 181 µM). The EC50 in the series with HIV-1 (standard CEM cell assay, side-by-side comparison, read-out: EC50, HIV inhibition, calculated by linear regression) was 43 µg/mL (≈ 181 µM). In addition, the “% inhibition of α-glucosidase” value in the series on α-glucosidase [4] was determined as 46%. Moreover, the inhibition at 10 µM with visna virus (0.01 mM) worked out at 39%. This compound also gave an inhibition at 100 µM with visna virus (0.1 mM) of 38%. The compound also displayed an inhibition at 1000 µM in the series on visna virus (1.0 mM) of 99%. Besides, the “% inhibition of β-glucosidase” value in the series with β-glucosidase [5] is listed as 32%.
